According to patent publication US20240158370A1, “CK1 alpha AND DUAL CK1 alpha / GSPT1 DEGRADING COMPOUNDS” (Innovo Therapeutics, Inc., priority 2022, published 2024):

Tests used:
CK1α = target: T1, CK1α (Homo sapiens, UniProt P48729+Q96SW2); experiment: HiBiT degradation assay, CK1α, Procedure A; type: cell-based; details: six hours incubation
T1 construct: CSNK1A1-HiBit KI HEK293(LgBit) Cells; host or cells: HEK293(LgBit) knock-in cells
Procedure, shortened: (§1)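 DC50 and Ymin (% remaining) were derived by four-parameter fitting of luminescence data. The data come from a six-hour, 37° C compound exposure of cells in DMEM/10% FBS over a ten-point range, 10 μM to 0.005 μM, followed by Nano-Glo HiBiT lytic detection.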

GSPT1 = GSPT1 (Homo sapiens, UniProt P15170+Q96SW2); experiment: HiBiT degradation assay, GSPT1, Procedure A; type: cell-based; design: HiBit-GSPT1 KI HEK293(LgBit) Cells; host or cells: HEK293(LgBit) knock-in cells; details: six hours incubation
Procedure, shortened: as §1

T1 sequence (P48729 whole entry): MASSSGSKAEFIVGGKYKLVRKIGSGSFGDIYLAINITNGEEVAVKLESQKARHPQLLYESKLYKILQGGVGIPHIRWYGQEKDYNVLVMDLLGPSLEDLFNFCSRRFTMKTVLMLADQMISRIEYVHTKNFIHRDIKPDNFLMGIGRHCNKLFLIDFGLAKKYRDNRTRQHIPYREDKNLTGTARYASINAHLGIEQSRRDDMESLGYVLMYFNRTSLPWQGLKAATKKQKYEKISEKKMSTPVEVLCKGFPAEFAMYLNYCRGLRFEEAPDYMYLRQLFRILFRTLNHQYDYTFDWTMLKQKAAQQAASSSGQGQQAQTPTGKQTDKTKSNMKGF
T1 sequence (Q96SW2 whole entry): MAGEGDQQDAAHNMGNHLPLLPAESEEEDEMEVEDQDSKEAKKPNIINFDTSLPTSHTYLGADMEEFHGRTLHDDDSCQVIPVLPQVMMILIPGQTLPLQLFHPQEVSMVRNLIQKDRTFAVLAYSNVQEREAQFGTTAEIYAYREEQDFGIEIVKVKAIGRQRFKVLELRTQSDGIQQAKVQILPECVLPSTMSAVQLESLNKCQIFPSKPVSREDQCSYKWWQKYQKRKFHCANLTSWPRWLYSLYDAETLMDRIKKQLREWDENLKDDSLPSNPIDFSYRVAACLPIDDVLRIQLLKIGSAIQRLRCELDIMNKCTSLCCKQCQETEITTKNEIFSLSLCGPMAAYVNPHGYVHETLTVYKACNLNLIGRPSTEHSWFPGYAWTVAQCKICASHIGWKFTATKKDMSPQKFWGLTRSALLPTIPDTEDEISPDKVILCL
T1 sequence (Q16531 whole entry partner): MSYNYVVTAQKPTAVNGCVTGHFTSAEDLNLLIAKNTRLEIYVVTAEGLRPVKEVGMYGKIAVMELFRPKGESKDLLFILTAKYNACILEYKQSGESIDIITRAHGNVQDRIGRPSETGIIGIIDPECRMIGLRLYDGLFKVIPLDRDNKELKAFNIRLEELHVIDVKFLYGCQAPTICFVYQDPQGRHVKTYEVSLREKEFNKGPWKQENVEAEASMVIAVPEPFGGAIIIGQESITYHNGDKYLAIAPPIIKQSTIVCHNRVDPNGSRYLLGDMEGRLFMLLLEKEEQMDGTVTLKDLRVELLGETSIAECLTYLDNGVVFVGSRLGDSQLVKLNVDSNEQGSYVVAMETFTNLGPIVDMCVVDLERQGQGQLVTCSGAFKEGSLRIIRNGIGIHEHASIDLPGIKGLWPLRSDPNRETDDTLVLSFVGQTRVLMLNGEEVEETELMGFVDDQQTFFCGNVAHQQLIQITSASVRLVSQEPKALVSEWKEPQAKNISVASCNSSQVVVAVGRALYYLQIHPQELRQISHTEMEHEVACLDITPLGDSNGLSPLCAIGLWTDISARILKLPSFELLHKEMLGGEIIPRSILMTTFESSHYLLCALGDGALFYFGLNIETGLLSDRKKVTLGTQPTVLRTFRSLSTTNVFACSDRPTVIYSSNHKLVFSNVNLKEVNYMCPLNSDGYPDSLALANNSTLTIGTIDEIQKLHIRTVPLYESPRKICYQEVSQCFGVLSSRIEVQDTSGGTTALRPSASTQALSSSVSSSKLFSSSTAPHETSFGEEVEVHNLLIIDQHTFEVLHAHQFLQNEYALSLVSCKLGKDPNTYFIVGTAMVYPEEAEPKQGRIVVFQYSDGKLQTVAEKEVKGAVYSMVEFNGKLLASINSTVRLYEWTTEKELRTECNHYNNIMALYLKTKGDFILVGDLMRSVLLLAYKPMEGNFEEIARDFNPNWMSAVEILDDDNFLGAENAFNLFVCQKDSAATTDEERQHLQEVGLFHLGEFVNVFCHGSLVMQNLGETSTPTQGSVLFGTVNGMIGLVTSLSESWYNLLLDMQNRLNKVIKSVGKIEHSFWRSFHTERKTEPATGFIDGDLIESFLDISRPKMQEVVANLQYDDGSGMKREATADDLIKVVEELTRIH
Sequence of GSPT1 (P15170 whole entry): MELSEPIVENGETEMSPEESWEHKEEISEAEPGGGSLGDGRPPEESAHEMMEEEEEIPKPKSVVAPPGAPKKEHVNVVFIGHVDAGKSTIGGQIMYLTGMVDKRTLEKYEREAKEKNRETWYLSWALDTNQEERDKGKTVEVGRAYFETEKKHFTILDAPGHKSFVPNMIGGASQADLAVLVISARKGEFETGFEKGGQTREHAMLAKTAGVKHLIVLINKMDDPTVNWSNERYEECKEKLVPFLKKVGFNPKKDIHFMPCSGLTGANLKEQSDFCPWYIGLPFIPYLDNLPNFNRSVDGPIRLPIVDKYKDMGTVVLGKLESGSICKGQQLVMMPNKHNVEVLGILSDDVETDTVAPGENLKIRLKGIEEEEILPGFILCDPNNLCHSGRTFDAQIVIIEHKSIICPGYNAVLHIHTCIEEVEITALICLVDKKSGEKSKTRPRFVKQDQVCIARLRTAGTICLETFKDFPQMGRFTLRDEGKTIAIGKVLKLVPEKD
Sequence of GSPT1 (Q96SW2 whole entry): as the sequence (Q96SW2 whole entry) above
Sequence of GSPT1 (Q16531 whole entry partner): as the sequence (Q16531 whole entry partner) above

With `Cn1cnc(-c2ccc3c(c2)CN(C2CCC(=O)NC2=O)C3=O)c1-c1cccc2c1OCC2` (stereo not shown) [Example 349] the “CK1α Ymin” value (CK1α) was “C (C = 0-10% remaining)”, the DC50 (CK1α) was under 25 nM and the DC50 (GSPT1) was under 25 nM. The “GSPT1 Ymin” value (GSPT1) was “F (F = >75-100% remaining)”.

For `Cn1cnc(-c2ccc3c(c2)CN(C2CCC(=O)NC2=O)C3=O)c1-c1cc(F)ccc1Cl` (stereo not shown) [Example 350], the “CK1α Ymin” value (CK1α) was “D (D = >10- 25% remaining)”, the DC50 (CK1α) was at least 25 nM and the DC50 (GSPT1) was at least 25 nM. For the same compound, the “GSPT1 Ymin” value (GSPT1) was “F (F = >75-100% remaining)”.

In the case of `COc1cc(-c2c(-c3ccc4c(c3)CN(C3CCC(=O)NC3=O)C4=O)ncn2C)ccc1Cl` (stereo not shown) [Example 351], the “CK1α Ymin” value (CK1α) is reported as “D (D = >10- 25% remaining)”, the DC50 (CK1α) is reported as at least 25 nM and the DC50 (GSPT1) is reported as at least 25 nM. For the same compound, the “GSPT1 Ymin” value (GSPT1) was “F (F = >75-100% remaining)”.

In the case of `Cn1cnc(-c2ccc3c(c2)CN(C2CCC(=O)NC2=O)C3=O)c1-c1cccc(-c2cccnc2)c1` (stereo not shown) [Example 352], the “CK1α Ymin” value (CK1α) is reported as “C (C = 0-10% remaining)”, the DC50 (CK1α) is reported as under 25 nM and the DC50 (GSPT1) is reported as at least 25 nM. The “GSPT1 Ymin” value (GSPT1) was “F (F = >75-100% remaining)”.

For `Cn1cnc(-c2ccc3c(c2)CN(C2CCC(=O)NC2=O)C3=O)c1-c1ccc(N2CCOCC2)cc1` (stereo not shown) [Example 353], the “CK1α Ymin” value (CK1α) was “C (C = 0-10% remaining)”, the DC50 (CK1α) was under 25 nM and the DC50 (GSPT1) was under 25 nM. The “GSPT1 Ymin” value (GSPT1) was “F (F = >75-100% remaining)”.

For `Cn1cnc(-c2ccc3c(c2)CN(C2CCC(=O)NC2=O)C3=O)c1-c1ccc(S(=O)(=O)N2CCCC2)cc1` (stereo not shown) [Example 354], the “CK1α Ymin” value (CK1α) was “E (E = >25-75% remaining)”, the DC50 (CK1α) was under 25 nM and the DC50 (GSPT1) was under 25 nM. The “GSPT1 Ymin” value (GSPT1) was “F (F = >75-100% remaining)”.

For `CN1CCN(c2ccc(-c3c(-c4ccc5c(c4)CN(C4CCC(=O)NC4=O)C5=O)ncn3C)cc2)CC1` (stereo not shown) [Example 355], the “CK1α Ymin” value (CK1α) was “E (E = >25-75% remaining)”, the DC50 (CK1α) was under 25 nM and the DC50 (GSPT1) was at least 25 nM. The “GSPT1 Ymin” value (GSPT1) was “F (F = >75-100% remaining)”.

For `Cn1cnc(-c2ccc3c(c2)CN(C2CCC(=O)NC2=O)C3=O)c1-c1ccc(NC(=O)c2ccccc2)cc1` (stereo not shown) [Example 356], the “CK1α Ymin” value (CK1α) was “F (F = >75-100% remaining)”, the DC50 (CK1α) was at least 25 nM and the DC50 (GSPT1) was at least 25 nM. For the same compound, the “GSPT1 Ymin” value (GSPT1) was “F (F = >75-100% remaining)”.

`CN1CCN(C(=O)c2cccc(-c3c(-c4ccc5c(c4)CN(C4CCC(=O)NC4=O)C5=O)ncn3C)c2)CC1` (stereo not shown) [Example 357] was tested, and the “CK1α Ymin” value (CK1α) was “C (C = 0-10% remaining)”, the DC50 (CK1α) was under 25 nM and the DC50 (GSPT1) was at least 25 nM. For the same compound, the “GSPT1 Ymin” value (GSPT1) was “F (F = >75-100% remaining)”.

With `COc1ccc(-c2c(-c3ccc4c(c3)CN(C3CCC(=O)NC3=O)C4=O)ncn2C)cc1OCc1ccccc1` (stereo not shown) [Example 358] the “CK1α Ymin” value (CK1α) was “E (E = >25-75% remaining)”, the DC50 (CK1α) was under 25 nM and the DC50 (GSPT1) was at least 25 nM. The “GSPT1 Ymin” value (GSPT1) was “F (F = >75-100% remaining)”.

With `Cn1cnc(-c2ccc3c(c2)CN(C2CCC(=O)NC2=O)C3=O)c1-c1ccc(OCCCN2CCOCC2)cc1` (stereo not shown) [Example 359] the “CK1α Ymin” value (CK1α) was “E (E = >25-75% remaining)”, the DC50 (CK1α) was under 25 nM and the DC50 (GSPT1) was at least 25 nM. The “GSPT1 Ymin” value (GSPT1) was “F (F = >75-100% remaining)”.

In the case of `Cn1ncc(-c2ccc3c(c2)CN(C2CCC(=O)NC2=O)C3=O)c1-c1cccnc1` (stereo not shown) [Example 360], the “CK1α Ymin” value (CK1α) is reported as “D (D = >10- 25% remaining)”, the DC50 (CK1α) is reported as under 25 nM and the DC50 (GSPT1) is reported as at least 25 nM. The “GSPT1 Ymin” value (GSPT1) was “F (F = >75-100% remaining)”.

For `Cn1ncc(-c2ccc3c(c2)CN(C2CCC(=O)NC2=O)C3=O)c1-c1ccncc1` (stereo not shown) [Example 361], the “CK1α Ymin” value (CK1α) was “E (E = >25-75% remaining)”, the DC50 (CK1α) was under 25 nM and the DC50 (GSPT1) was at least 25 nM. For the same compound, the “GSPT1 Ymin” value (GSPT1) was “F (F = >75-100% remaining)”.

`Cn1ncc(-c2ccc3c(c2)CN(C2CCC(=O)NC2=O)C3=O)c1-c1cncnc1` (stereo not shown) [Example 362] was tested, and the “CK1α Ymin” value (CK1α) was “E (E = >25-75% remaining)”, the DC50 (CK1α) was under 25 nM and the DC50 (GSPT1) was at least 25 nM. The “GSPT1 Ymin” value (GSPT1) was “F (F = >75-100% remaining)”.

For `Cn1ccc(-c2c(-c3ccc4c(c3)CN(C3CCC(=O)NC3=O)C4=O)cnn2C)c1` (stereo not shown) [Example 363], the “CK1α Ymin” value (CK1α) was “C (C = 0-10% remaining)”, the DC50 (CK1α) was under 25 nM and the DC50 (GSPT1) was under 25 nM. For the same compound, the “GSPT1 Ymin” value (GSPT1) was “F (F = >75-100% remaining)”.

`Cc1occc1-c1c(-c2ccc3c(c2)CN(C2CCC(=O)NC2=O)C3=O)cnn1C` (stereo not shown) [Example 364] was tested, and the “CK1α Ymin” value (CK1α) was “D (D = >10- 25% remaining)”, the DC50 (CK1α) was at least 25 nM and the DC50 (GSPT1) was at least 25 nM. For the same compound, the “GSPT1 Ymin” value (GSPT1) was “F (F = >75-100% remaining)”.

`Cc1ccc(-c2c(-c3ccc4c(c3)CN(C3CCC(=O)NC3=O)C4=O)cnn2C)o1` (stereo not shown) [Example 365] was tested, and the “CK1α Ymin” value (CK1α) was “D (D = >10- 25% remaining)”, the DC50 (CK1α) was at least 25 nM and the DC50 (GSPT1) was at least 25 nM. For the same compound, the “GSPT1 Ymin” value (GSPT1) was “F (F = >75-100% remaining)”.

`Cn1cc(-c2c(-c3ccc4c(c3)CN(C3CCC(=O)NC3=O)C4=O)cnn2C)cn1` (stereo not shown) [Example 366] was tested, and the “CK1α Ymin” value (CK1α) was “C (C = 0-10% remaining)”, the DC50 (CK1α) was under 25 nM and the DC50 (GSPT1) was at least 25 nM. For the same compound, the “GSPT1 Ymin” value (GSPT1) was “F (F = >75-100% remaining)”.

`Cc1ccc(-c2c(-c3ccc4c(c3)CN(C3CCC(=O)NC3=O)C4=O)cnn2C)cn1` (stereo not shown) [Example 367] was tested, and the “CK1α Ymin” value (CK1α) was “C (C = 0-10% remaining)”, the DC50 (CK1α) was under 25 nM and the DC50 (GSPT1) was under 25 nM. For the same compound, the “GSPT1 Ymin” value (GSPT1) was “F (F = >75-100% remaining)”.

For `Cc1cc(-c2c(-c3ccc4c(c3)CN(C3CCC(=O)NC3=O)C4=O)cnn2C)ccn1` (stereo not shown) [Example 368], the “CK1α Ymin” value (CK1α) was “E (E = >25-75% remaining)”, the DC50 (CK1α) was under 25 nM and the DC50 (GSPT1) was under 25 nM. For the same compound, the “GSPT1 Ymin” value (GSPT1) was “F (F = >75-100% remaining)”.

For `Cc1cncc(-c2c(-c3ccc4c(c3)CN(C3CCC(=O)NC3=O)C4=O)cnn2C)c1` (stereo not shown) [Example 369], the “CK1α Ymin” value (CK1α) was “F (F = >75-100% remaining)”, the DC50 (CK1α) was at least 25 nM and the DC50 (GSPT1) was at least 25 nM. For the same compound, the “GSPT1 Ymin” value (GSPT1) was “F (F = >75-100% remaining)”.

With `Cn1ncc(-c2ccc3c(c2)CN(C2CCC(=O)NC2=O)C3=O)c1-c1ccc(N)nc1` (stereo not shown) [Example 370] the “CK1α Ymin” value (CK1α) was “E (E = >25-75% remaining)”, the DC50 (CK1α) was at least 25 nM and the DC50 (GSPT1) was at least 25 nM.

For `Cn1ncc(-c2ccc3c(c2)CN(C2CCC(=O)NC2=O)C3=O)c1-c1cncc(N)c1` (stereo not shown) [Example 371], the “CK1α Ymin” value (CK1α) was “D (D = >10- 25% remaining)”, the DC50 (CK1α) was at least 25 nM and the DC50 (GSPT1) was at least 25 nM. The “GSPT1 Ymin” value (GSPT1) was “F (F = >75-100% remaining)”.

With `Cc1c(-c2c(-c3ccc4c(c3)CN(C3CCC(=O)NC3=O)C4=O)cnn2C)cnn1C` (stereo not shown) [Example 372] the “CK1α Ymin” value (CK1α) was “E (E = >25-75% remaining)”, the DC50 (CK1α) was at least 25 nM and the DC50 (GSPT1) was at least 25 nM. For the same compound, the “GSPT1 Ymin” value (GSPT1) was “F (F = >75-100% remaining)”.

With `Cc1nn(C)cc1-c1c(-c2ccc3c(c2)CN(C2CCC(=O)NC2=O)C3=O)cnn1C` (stereo not shown) [Example 373] the “CK1α Ymin” value (CK1α) was “E (E = >25-75% remaining)”, the DC50 (CK1α) was at least 25 nM and the DC50 (GSPT1) was at least 25 nM. For the same compound, the “GSPT1 Ymin” value (GSPT1) was “F (F = >75-100% remaining)”.

`CN1N=CC(c2ccc3c(c2)CN(C2CCC(=O)NC2=O)C3=O)C1c1cnc(C#N)nc1` (stereo not shown) [Example 374] was tested, and the “CK1α Ymin” value (CK1α) was “F (F = >75-100% remaining)”, the DC50 (CK1α) was at least 25 nM and the DC50 (GSPT1) was at least 25 nM. For the same compound, the “GSPT1 Ymin” value (GSPT1) was “F (F = >75-100% remaining)”.

For `Cn1cc(-c2c(-c3ccc4c(c3)CN(C3CCC(=O)NC3=O)C4=O)cnn2C)cc1C#N` (stereo not shown) [Example 375], the “CK1α Ymin” value (CK1α) was “D (D = >10- 25% remaining)”, the DC50 (CK1α) was under 25 nM and the DC50 (GSPT1) was at least 25 nM. The “GSPT1 Ymin” value (GSPT1) was “F (F = >75-100% remaining)”.

In the case of `CN1N=CC(c2ccc3c(c2)CN(C2CCC(=O)NC2=O)C3=O)C1c1cnn(C2CC2)c1` (stereo not shown) [Example 376], the “CK1α Ymin” value (CK1α) is reported as “D (D = >10- 25% remaining)”, the DC50 (CK1α) is reported as under 25 nM and the DC50 (GSPT1) is reported as at least 25 nM. For the same compound, the “GSPT1 Ymin” value (GSPT1) was “F (F = >75-100% remaining)”.

For `COc1ncccc1-c1c(-c2ccc3c(c2)CN(C2CCC(=O)NC2=O)C3=O)cnn1C` (stereo not shown) [Example 377], the “CK1α Ymin” value (CK1α) was “E (E = >25-75% remaining)”, the DC50 (CK1α) was under 25 nM and the DC50 (GSPT1) was at least 25 nM. For the same compound, the “GSPT1 Ymin” value (GSPT1) was “F (F = >75-100% remaining)”.
